From US8492414B2, “Antibacterial agents” (Biota Scientific Management Pty Ltd, priority 2007, dated 2013) come the findings set out here.

The structures appear in SMILES notation. Converted amounts (≈) assume the structure as drawn. A value given as a limit tells only on which side of the number the result lay.

In the assay the test system is Staphylococcus aureus ATCC29213. In words: Minimum Inhibitory Concentration (MIC) testing, broth microdilution or agar dilution. It is filed as cell-based. Particulars: MIC scored A/B/C, read-out: Staphylococcus aureus MICs, Activity. The method, then:
Minimum Inhibitory Concentration (MIC) Testing Compounds of this invention were tested for antimicrobial activity by susceptibility testing in liquid or on solid media. […] Activities were scored as ‘A’ if the MIC was ≦[…] micrograms/ml, ‘B’ if the MIC was 0.25 to 4 micrograms/ml and ‘C’ if the MIC was greater than 4 micrograms/ml.

Turning to `NC(=O)c1c(F)ccc(OCc2nc(-c3ccc(Cl)cc3)ns2)c1F` [Example 1, 3-[3-(4-Chlorophenyl)-[1,2,4]thiadiazol-5-ylmethoxy]-2,6-difluorobenzamide], the MIC is at most 1.12 µg/mL.

As to `COc1ccc(-c2nsc(COc3ccc(F)c(C(N)=O)c3F)n2)cc1` [Example 2, 2,6-Difluoro-3-[3-(4-methoxyphenyl)-[1,2,4]thiadiazol-5-ylmethoxy]-benzamide], the MIC is at most 1.12 µg/mL.

With `NC(=O)c1c(F)ccc(OCc2nc(-c3ccc(O)cc3)ns2)c1F` [Example 4, 2,6-Difluoro-3-[3-(4-hydroxyphenyl)-[1,2,4]thiadiazol-5-ylmethoxy]-benzamide], the MIC fell in the range of 0.25 to 4 µg/mL (≈ 0.688 to 11 µM).

With `NC(=O)c1c(F)ccc(OCc2nc(-c3ccc(OC(F)(F)F)cc3)ns2)c1F` [Example 3, 2,6-Difluoro-3-[3-(4-trifluoromethoxyphenyl)-[1,2,4]thiadiazol-5-ylmethoxy]-benzamide], the MIC was at most 1.12 µg/mL.

For the molecule `COc1cc(Cl)ccc1-c1nsc(COc2ccc(F)c(C(N)=O)c2F)n1` [Example 5, 3-((3-(4-chloro-2-methoxyphenyl)-1,2,4-thiadiazol-5-yl)methoxy)-2,6-difluorobenzamide], the MIC was in the range of 0.25 to 4 µg/mL (≈ 0.607 to 9.71 µM).

For `NC(=O)c1c(F)ccc(OCc2nc(-c3ccc(Cl)cc3OCc3ccccc3)ns2)c1F` [Example 6, 3-((3-(2-(Benzyloxy)-4-chlorophenyl)-1,2,4-thiadiazol-5-yl)methoxy)-2,6-difluorobenzamide], the MIC lay in the range of 0.25 to 4 µg/mL (≈ 0.512 to 8.2 µM).

For `NC(=O)c1c(F)ccc(OCc2nc(-c3ccc(Cl)cc3O)ns2)c1F` [Example 7, 3-((3-(4-chloro-2-hydroxyphenyl)-1,2,4-thiadiazol-5-yl)methoxy)-2,6-difluorobenzamide], the MIC was at most 1.12 µg/mL.
